{"source": "patent US20110173718A1", "about": "“HERBICIDE TOLERANT PLANTS” (SYNGENTA CROP PROTECTION, INC., priority 2008, published 2011)", "key": {"Chlamydomonas HST": {"biological_target": "T1, Chlamydomonas HST (Chlamydomonas reinhardtii, UniProt A1JHN0)", "T1 construct": "GST (N); made in house; host or cells: E. coli (BL21A1 / BL21DE3), membrane fraction", "T1 sequence (A1JHN0 51-370)": "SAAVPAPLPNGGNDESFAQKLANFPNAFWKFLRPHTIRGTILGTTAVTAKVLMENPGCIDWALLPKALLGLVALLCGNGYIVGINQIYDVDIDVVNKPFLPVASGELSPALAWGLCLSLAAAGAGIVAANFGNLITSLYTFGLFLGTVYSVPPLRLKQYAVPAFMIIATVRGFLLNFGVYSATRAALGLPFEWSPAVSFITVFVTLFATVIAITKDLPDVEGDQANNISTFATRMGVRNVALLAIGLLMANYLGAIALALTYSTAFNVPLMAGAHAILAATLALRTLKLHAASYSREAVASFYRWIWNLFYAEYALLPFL", "assay": "HST assay (TLC, MFBQ formed), recombinant Chlamydomonas HST in E. coli membranes", "assay_type": "biochemical", "conditions": "TLC, estimated amount of MFBQ formed, relative to controls", "method": "Alternatively, Arabidopsis and Chlamydomonas mature HST coding sequences are cloned as GST N-terminal fusion enzymes and expressed in E. coli.\nE. coli. BL21A1 cells expressing mature Arabidopsis or Chlamydonionas HST as a GST N-terminal fusion proteins are grown, harvested, broken and membrane fractions expressing HST produced.\nFor example, 1 ng of recombinant DNA is used to transform BL21DE3 cells to obtain a plateful of individual colonies. One of these colonies is picked and used to inoculate an overnight culture of 100 ml of Luria Broth (LB) supplemented with 50 ug/ml of kanamycin at final concentration, grown at 37° C. with shaking at 220 rpm. Next morning, 10 mls of the overnight culture is used to inoculate 11 of fresh sterile LB supplemented with 50 ug/ml of kanamycin at final concentration, grown at 37° C. with shaking at 220 rpm until the OD reached 0.6 at 600 nm, induced with the addition of 0.1 mM IPTG and left to induce at 15° C. overnight. The cells are harvested by centrifugation at 4600 rpm for 10 min at 4° C. and the pellet stored at −80° C. […] E. coli cell pellet is then resuspended in 25 ml of 50 mM Tris, pH 7.5 supplemented with Roche EDTA-free protease inhibitor tablet (one tablet in 200 mls of buffer). 10 ml of cells are lysed by sonication on ice. The resultant lysed cells are centrifuged at 3000 g for 10 min to pellet the cell nuclei/debris etc. 10 mls of supernatant is aspirated and centrifuged at 150,000 g for 60 min at 4° C. The pellet containing the membranes is resuspended in 2 ml of the above buffer. These samples are stored as 100 ul aliquots at −80° C., after being diluted with addition of glycerol to 50% v/v.\nPrenyltransferase (HST) activities are measured by determining the prenylation rates of [U—^14C]homogentisate using farnesyl diphosphate (FDP) as prenyl donor. ^14C homogentisate is prepared from ^14C tyrosine using L amino acid oxidase and HPPD. For inhibitor testing, compounds are dissolved in dimethylsulfoxide (DMSO). DMSO added at up to 2% v/v has no effect on assays. Control assays contain DMSO at the same concentration as in inhibitor containing assays.\nThe recombinant Chlamydomonas HST expressed in E. coli membranes is assayed in standard reaction mixtures with 200 μM FDP and 100 μM ^14C-homogentisate (40 dpm/pmol) in 50 mM Tricine-NaOH pH 8.5, 20 mM MgCl2. Assays are started with the addition of enzyme and run for ˜20 min at 28° C.\nRecombinant Arabidopsis and Rice HSTs are expressed in insect cells. Assays are run as for Chlamydomonas HST except that assay temperature is 27° C. Assays are stopped with 300 ul of solvent mix (1:2, Chloroform:Methanol) and 100 ul of 0.5% NaCl, agitated/mixed and spun at 13,000 rpm in a benchtop eppendorf centrifuge for 5 minutes. 80 ul of the lower phase extract is loaded onto a TLC plate (silica Gel 60, 20 cm×20 cm) FLA3000 system and run for 35 minutes in dichloromethane. The radioactivity is quantified using a Fuji Phosphoimager and band intensity integrated as quantitative measure of product amount. The bands corresponding to oxidised and reduced 2-methyl-6-farnesyl-1,4-benzoquinol (MFBQ) are identified and the total of the two (oxidised and reduced) band intensities is calculated in order to estimate the total amount of MFBQ product formation. Specific activities of 8 pmol MFBQ min^−1 mg^−1 protein (23 pmol) and 7 pmol MFBQ min^−1 mg^−1 protein (14 pmol) are, for example, estimated for the GST-fusion truncated Arabidopsis HST gene (SEQ ID # 3) expressed in membranes from insect cells 4 days and 5 days after transfection respectively. Similar results are noted from past literature on E. coli expressed Arabidopsis HST. Activity from the insect cell expressed GST-fusion truncated rice HST (SEQ ID# 4) is similar. Expression of the non-truncated HST coding sequences as GST fusions also gives HST activity. […]"}, "[1]": {"test_system": "wild-type (WT) Samsun tobacco", "assay": "Glasshouse spray test, wild-type tobacco", "assay_type": "in vivo", "conditions": "500 g/ha; 14 DAT; WT control, reps", "method": "Rooted transgenic T0 plantlets are transferred from agar and potted into 50% peat, 50% John Innes soil no 3 or, for example, MetroMix® 380 soil (Sun Gro Horticulture, Bellevue, Wash.) with slow-release fertilizer in 3 inch round or 4 inch square pots and left regularly watered to establish for 8-12 d in the glass house. Glass house conditions are about 24-27° C. day; 18-21° C. night and approximately a 14 h (or longer in UK summer) photoperiod. Humidity is ˜65% and light levels up to 2000 μmol/m^2 at bench level. Once new tissue emerges and plants they have reached the 2-4 leaf stage some of the clones from each event are sprayed with test chemicals dissolved in water with 0.2-0.25% X-77 surfactant and sprayed from a boom on a suitable track sprayer moving at 2 mph in a DeVries spray chamber with the nozzle about 2 inches from the plant tops. Spray volume is suitably 25 gallons per acre or, for example, […].\nTest chemicals are, for example, compound 2.3 at 500 g/ha. At the same time that transgenic plants are sprayed so too are w/t Samsun tobacco plants grown from seed as well as non-transgenic plants regenerated from tissue culture and non-transgenic tissue culture escapes. Damage is assessed versus unsprayed control plants of like size and development.\n6 Seed from w/t Samsun tobacco and 8 T1 seed from events B8 and G9 are also planted out in 3 inch pots, grown on for 7 to 12 d and then, as described in the foregoing examples, the plantlets spray tested for resistance to various chemicals and assessed at 14 DAT. Chemicals are formulated in 0.2% X77 and sprayed at a spray volume of 200 l/ha.\nSeed of wild-type tobacco plants, C2 tobacco plants and of the T1 progeny of a further Arabidopsis-HST expressing tobacco line, D2 were planted out in 3 inch pots, grown on, sprayed with compounds 1.1, 2.30 and 3.6 at the rates shown in table 5. Percent damage scores were assessed at 7 DAT. Aside from the presumptive non-transgenic segregants the D2 line containing the Arabidopis HST expression construct offered the highest level of tolerance to the two HST herbicides with the Psuedomonas HPPD, C2 line, offering only marginal tolerance under the conditions of this test.\nSingle copy events amongst the T1 plant lines are identified by their 3:1 segregation ratio (wrt kanamycin and or herbicide) and by quantitative RT-PCR. Seed from the thus selected T1 tobacco (var Samsun) lines are sown in 3 inch diameter pots containing 50% peat, 50% John Innes soil no 3. After growth to the 3 leaf stage, plants are sprayed, as described above, in order to test for herbicide tolerance relative to like-treated non-transgenic tobacco plants.\nControl tobacco plants and transgenic T1 plants expressing either the Pseudomonas or the wheat HPPD gene are sprayed at 37, 111, 333 and 1000 g/ha rates of HST inhibitors and, for example, compound 2.3.\nPlants are assessed and scored for % damage at 16 DAT."}, "[2]": {"test_system": "Arabidopsis HST transgenic tobacco plants", "assay": "Glasshouse spray test, Arabidopsis HST transgenic tobacco", "assay_type": "in vivo", "conditions": "500 g/ha, 14 DAT", "from_the_text": "For example the Arabidopsis HST SEQ ID # 11 is cloned behind a double 35s CMV promoter sequence and a TMV translational enhancer sequence and in front of the 3′ terminator from the nos gene. This expression cassette is ligated into pMJB1 (described in WO98/20144) and then into pBIN19 and then transformed into Agrobacterium tuniqfaciens strains LBA4404 prior to plant transformation.\nFor example, the full length Arabidopsis HST seq ID # 11 is fused to the TMV translational enhancer sequence (SEQ ID #33) by overlapping PCR and, at the same time, 5′ XhoI site and a 3′KpnI site are added by PCR. Site-directed mutagenesis is performed to remove an internal XhoI site. The TMV/HPPD fusion is removed from the pBIN19 by digestion with XhoI/KpnI and is replaced by the TMV/HST fusion (SEQ ID #34). The TMV/HST fusion is now cloned behind a double 35s promoter and in front of the 3′ terminator from the nos gene. Again the modified pBIN19 vector (‘pBinAT HST’) is then transformed into Agrobacterium tumefaciens strain LBA4404.\nA master plate of Agrobacterium tumefaciens containing the binary vector pBinAT HST (described above) or analogous binary vector comprising a different HST is used to inoculate 10 ml LB containing 100 mg/1 Rifampicin plus 50 mg/1 Kanamycin using a single bacterial colony. This is incubated overnight at 28° C. shaking at 200 rpm. This entire overnight culture is used to inoculate a 50 ml volume of LA (plus antibiotics). Again this is cultured overnight at 28° C. shaking at 200 rpm. The Agrobacterium cells are pelleted by centrifuging at 3000 rpm for 15 minutes then resuspended in MS medium with 30 g/1 sucrose, pH 5.9 to an OD ([…])=0.6. This suspension is dispensed in 25 ml aliquots into petri dishes.\nClonal micro-propagated tobacco shoot cultures are used to excise young (not yet fully expanded) leaves. The mid rib and outer leaf margins are removed and discarded, the remaining lamina is cut into 1 cm squares. These are transferred to the Agrobacterium suspension for 20 minutes. Explants are then removed, dabbed on sterile filter paper to remove excess suspension then transferred to NBM medium (MS medium, 30 g/1 sucrose, 1 mg/1 BAP, 0.1 mg/1 NAA, pH 5.9, solidified with 8 g/1 Plantagar), with the abaxial surface of each explant in contact with the medium. Approximately 7 explants are transferred per plate, which are then sealed then maintained in a lit incubator at 25° C., 16 hour photoperiod for 3 days.\nExplants are then transferred to NBM medium containing 100 mg/1 Kanamycin plus antibiotics to prevent further growth of Agrobacterium (200 mg/1 timentin with 250 mg/1 carbenicillin). Further subculture on to this same medium is then performed every 2 weeks.\nAs shoots start to regenerate from the callusing leaf explants these are removed to Shoot elongation medium (MS medium, 30 g/1 sucrose, 8 g/1 Plantagar, 100 mg/1 Kanamycin, 200 mg/1 timentin, 250 mg/1 carbenicillin, pH 5.9). Stable transgenic plants readily root within 2 weeks. To provide multiple plants per event to ultimately allow more than one herbicide test per transgenic plant all rooting shoots are micropropagated to generate 3 or more rooted clones.\nPutative transgenic plants that are rooting and show vigorous shoot growth on the medium incorporating Kanamycin are analysed by PCR using primers that amplified a 500 bp fragment within the Arabidopsis HST transgene.\nRooted transgenic T0 plantlets are transferred from agar and potted into 50% peat, 50% John Innes soil no 3 or, for example, MetroMix® 380 soil (Sun Gro Horticulture, Bellevue, Wash.) with slow-release fertilizer in 3 inch round or 4 inch square pots and left regularly watered to establish for 8-12 d in the glass house. Glass house conditions are about 24-27° C. day; 18-21° C. night and approximately a 14 h (or longer in UK summer) photoperiod. Humidity is ˜65% and light levels up to 2000 μmol/m^2 at bench level. […]"}}, "data": [{"smiles": "O=c1[nH]c2nccnc2c(O)c1-c1c(F)ccc(F)c1Cl", "note": "[Compound 2.7]", "values": [{"measurement": "Chlamydomonas. HST % I at 10 ppm", "setting": "Chlamydomonas HST", "value": 5, "unit": "%"}, {"measurement": "Chlamydomonas. HST % I at 100 ppm", "setting": "Chlamydomonas HST", "value": 20, "unit": "%"}]}, {"smiles": "O=c1[nH]c2nccnc2c(O)c1-c1ccccc1OC(F)(F)F", "note": "[Compound 2.6]", "values": [{"measurement": "Chlamydomonas. HST % I at 10 ppm", "setting": "Chlamydomonas HST", "value": 5, "unit": "%"}, {"measurement": "Chlamydomonas. HST % I at 100 ppm", "setting": "Chlamydomonas HST", "value": 20, "unit": "%"}]}, {"smiles": "CN1CC(c2c(F)ccc(F)c2Cl)=C(O)c2ncccc21", "note": "[Compound 4.1]", "values": [{"measurement": "Chlamydomonas. HST % I at 10 ppm", "setting": "Chlamydomonas HST", "value": 0, "unit": "%"}, {"measurement": "Chlamydomonas. HST % I at 100 ppm", "setting": "Chlamydomonas HST", "value": 0, "unit": "%"}]}, {"smiles": "O=c1[nH]c2nccnc2c(O)c1-c1c(F)ccc(Br)c1Cl", "note": "[Compound 2.1]", "values": [{"measurement": "Chlamydomonas. HST % I at 10 ppm", "setting": "Chlamydomonas HST", "value": 10, "unit": "%"}, {"measurement": "Chlamydomonas. HST % I at 100 ppm", "setting": "Chlamydomonas HST", "value": 40, "unit": "%"}]}, {"smiles": "Nc1nc[nH]n1", "note": "[Amitrole, reference compound]", "values": [{"measurement": "Chlamydomonas. HST % I at 10 ppm", "setting": "Chlamydomonas HST", "value": 0, "unit": "%"}, {"measurement": "Chlamydomonas. HST % I at 100 ppm", "setting": "Chlamydomonas HST", "value": 0, "unit": "%"}]}, {"smiles": "Cc1cc(C)c(-c2c(O)c3nccnc3n(C)c2=O)c(C)c1", "note": "[Compound 2.2]", "values": [{"measurement": "Chlamydomonas. HST % I at 10 ppm", "setting": "Chlamydomonas HST", "value": 70, "unit": "%"}, {"measurement": "Chlamydomonas. HST % I at 100 ppm", "setting": "Chlamydomonas HST", "value": 95, "unit": "%"}]}, {"smiles": "CCNc1nc(Cl)nc(NC(C)C)n1", "note": "[Atrazine, reference compound]", "values": [{"measurement": "herbicide % damage", "setting": "[1]", "value": 100, "unit": "%"}, {"measurement": "herbicide % damage", "setting": "[2]; T1 progeny of line B8, reps", "value": 100, "unit": "%"}, {"measurement": "herbicide % damage", "setting": "[2]; T1 progeny of line G9-2, reps", "value": 100, "unit": "%"}]}]}
